Laboratory results: patent publication US20160068861A1, “METHOD FOR DETECTING PROTEIN STABILITY AND USES THEREOF” (priority 2013, published 2016)

What was measured:
[1] = tested on: CZ-1/R cells; experiment: MTT detection of cell viability, BTZ-resistant cell line; type: cell-based, human
Experimental: (§1) CZ-1 cells can be obtained from Hou Jian Laboratory of Shanghai Changzheng Hospital (Hou J, Lin F Y, Zhang B, Zhang L Z, Ding S Q, Establishment and biological characteristics of human multiple myeloma cell line CZ-1. Chinese Medical Journal [2004, 117(1):115-119]); CZ-1/R cell lines was constructed by the inventor's Laboratories, and can be obtained from the inventor's laboratory (http://www.sibcb.ac.cn/PI.asp?id=129).
(§2) Plates were incubated for 24-72 hours. To each well was added 20 ul MTT (3-(4,5-dimethyl-2-thiazole)-2,5-diphenyl tetrazolium bromide) solution, culture was continued for another 4 hrs. To each well was added 150 ul of dimethyl sulfoxide, shaken on a shaker at low speed for 10 mins for thoroughly dissolving the crystals. Absorbance of each well was measured on an enzyme-linked immune detector at OD 490 nm (570 nm).

[2] = tested on: CZ-1 cells; experiment: MTT detection of cell viability, BTZ-sensitive cell line; type: cell-based, human
Experimental: as §1, §2

[3] = BTZ in combination with 17-AAG, FIG. 9
[4] = BTZ in combination with C75, FIG. 9

Measured: killing effects (MTT)

CC(C)C[C@H](NC(=O)[C@H](Cc1ccccc1)NC(=O)c1cnccn1)B(O)O [BTZ, Bortezomib]
significant killing effects: [1]; [3] | [1]; [4] | [2]; [3] | [2]; [4]
